According to US20220056040A1, “NOVEL 3-(2-BROMO-4-ALKYNYL-6-ALKOXYPHENYL)-3-PYRROLIN-2-ONES AND THEIR USE AS HERBICIDES” (Bayer Aktiengesellschaft, priority 2019, published 2022):

Experiments:
Assay type in all cases: in vivo
Alopecurus myosuroides [1] = assay: Pre-emergence herbicidal effect; details: 80 g/ha, visual score after 3 weeks vs untreated controls
Excerpt: (§1) Seeds of monocotyledonous and dicotyledonous weed plants and crop plants are laid out in sandy loam soil in wood-fiber pots and covered with soil. The compounds of the invention, formulated in the form of wettable powders (WP) or as emulsion concentrates (EC), are then applied to the surface of the covering soil as aqueous suspension or emulsion at a water application rate equating to 600 to 800 L/ha with addition of 0.2% wetting agent. After the treatment, the pots are placed in a greenhouse and kept under good growth conditions for the trial plants. The damage to the test plants is scored visually after a test period of 3 weeks by comparison with untreated controls (herbicidal activity in percent (%): 100% activity=the plants have died, 0% activity=like control plants).

Lolium rigidum [2] = assay: Pre-emergence herbicidal effect; details: 80 g/ha, visual score after 3 weeks vs untreated controls
Excerpt: as §1

Setaria viridis [3] = assay: Pre-emergence herbicidal effect; details: 80 g/ha, visual score after 3 weeks vs untreated controls
Excerpt: as §1

Avena fatua = assay: Pre-emergence herbicidal effect; details: 80 g/ha, visual score after 3 weeks vs untreated controls
Excerpt: as §1

Echinochloa crus-galli [4] = assay: Pre-emergence herbicidal effect; details: 80 g/ha, visual score after 3 weeks vs untreated controls
Excerpt: as §1

Digitaria sanguinalis [5] = assay: Pre-emergence herbicidal effect; details: 80 g/ha, visual score after 3 weeks vs untreated controls
Excerpt: as §1

Alopecurus myosuroides [6] = assay: Post-emergence herbicidal effect; details: 80 g/ha, post-emergence at one-leaf stage, visual score after about 3 weeks
Method: (§2) Seeds of monocotyledonous and dicotyledonous weed and crop plants are laid out in sandyloam soil in wood-fiber pots, covered with soil and cultivated in a greenhouse under good growth conditions. 2 to 3 weeks after sowing, the test plants are treated at the one-leaf stage. The compounds of the invention, formulated in the form of wettable powders (WP) or as emulsion concentrates (EC), are then sprayed onto the green parts of the plants as aqueous suspension or emulsion at a water application rate equating to 600 to 800 l/ha with addition of 0.2% wetting agent. After the test plants have been left to stand in the greenhouse under optimal growth conditions for about 3 weeks, the action of the preparations is assessed visually in comparison to untreated controls (herbicidal action in percent (%): 100% activity=the plants have died, 0% activity=like control plants).

Lolium rigidum [7] = assay: Post-emergence herbicidal effect; details: 80 g/ha, post-emergence at one-leaf stage, visual score after about 3 weeks
Method: as §2

Setaria viridis [8] = assay: Post-emergence herbicidal effect; details: 80 g/ha, post-emergence at one-leaf stage, visual score after about 3 weeks
Method: as §2

Echinochloa crus-galli [9] = assay: Post-emergence herbicidal effect; details: 80 g/ha, post-emergence at one-leaf stage, visual score after about 3 weeks
Method: as §2

Digitaria sanguinalis [10] = assay: Post-emergence herbicidal effect; details: 80 g/ha, post-emergence at one-leaf stage, visual score after about 3 weeks
Method: as §2

Hordeum murinum = assay: Post-emergence herbicidal effect; details: 80 g/ha, post-emergence at one-leaf stage, visual score after about 3 weeks
Method: as §2

| SMILES | Pre-emergence action ALOMY (herbicidal activity in percent) (Alopecurus myosuroides [1]) | Pre-emergence action LOLRI (herbicidal activity in percent) (Lolium rigidum [2]) | Pre-emergence action SETVI (herbicidal activity in percent) (Setaria viridis [3]) | Pre-emergence action AVEFA (herbicidal activity in percent) (Avena fatua) | Pre-emergence action ECHCG (herbicidal activity in percent) (Echinochloa crus-galli [4]) | Pre-emergence action DIGSA (herbicidal activity in percent) (Digitaria sanguinalis [5]) | Post-emergence action against ALOMY (herbicidal action in percent) (Alopecurus myosuroides [6]) | Post-emergence action against LOLRI (herbicidal action in percent) (Lolium rigidum [7]) | Post-emergence action against SETVI (herbicidal action in percent) (Setaria viridis [8]) | Post-emergence action against ECHCG (herbicidal action in percent) (Echinochloa crus-galli [9]) | Post-emergence action against DIGSA (herbicidal action in percent) (Digitaria sanguinalis [10]) | Post-emergence action against HORMU (herbicidal action in percent) (Hordeum murinum) |
| --- | --- | --- | --- | --- | --- | --- | --- | --- | --- | --- | --- | --- |
| C=CCOC1CCC2(CC1)NC(=O)C(c1c(Br)cc(C#CC)cc1OC)=C2OC(=O)OC (centres unmarked) [Example 1.3.02] | 100% | 100% | 100% | 90% | 100% | 100% | 100% | 80% | 100% | 90% | 100% | – |
| CC#Cc1cc(Br)c(C2=C(OC(C)=O)C3(CCC(OCCOC)CC3)NC2=O)c(OC)c1 (centres unmarked) [Example 1.3.08] | 100% | 100% | 100% | 90% | 100% | 100% | – | – | – | – | – | – |
| CC#Cc1cc(Br)c(C2=C(O)C3(CCC(OC(C)C)CC3)NC2=O)c(OC)c1 (centres unmarked) [Example 1.3.09] | 100% | 100% | 100% | 100% | 90% | 100% | – | – | – | – | – | – |
| CC#Cc1cc(Br)c(C2=C(OC(=O)OC)C3(CCOCC3)NC2=O)c(OC)c1 [Example 1.1.02, 3-[2-Bromo-6-methoxy-4-(prop-1-yn-1-yl)phenyl]-2-oxo-8-oxa-1-azaspiro[4.5]dec-3-en-4-yl methyl carbonate] | 90% | 100% | 100% | 80% | 80% | 100% | 100% | 100% | 100% | 100% | 100% | – |
| CC#Cc1cc(Br)c(C2=C(OC(=O)OCC)C3(CCOCC3)NC2=O)c(OC)c1 [Example 1.1.03] | – | – | – | – | – | – | 80% | 100% | 100% | 100% | 100% | – |
| CC#Cc1cc(Br)c(C2=C(OC(=O)OCC)C3(CCC(OC(C)C)CC3)NC2=O)c(OC)c1 (centres unmarked) [Example 1.3.12] | 100% | 100% | 100% | 80% | 100% | 100% | – | – | – | – | – | – |
| C=CCOC1CCC2(CC1)NC(=O)C(c1c(Br)cc(C#CC)cc1OC)=C2OC(=O)OCC (centres unmarked) [Example 1.3.03] | 100% | 100% | 100% | 90% | 100% | 100% | 100% | 100% | 100% | 100% | 100% | – |
| CC#Cc1cc(Br)c(C2=C(OC(=O)OC)C3(CCC(OCCOC)CC3)NC2=O)c(OC)c1 (centres unmarked) [Example 1.3.06] | 100% | 100% | 100% | 100% | 100% | 100% | – | – | – | – | – | – |
| CC#Cc1cc(Br)c(C2=C(OC(=O)OC)C3(CCC(OC(C)C)CC3)NC2=O)c(OC)c1 (centres unmarked) [Example 1.3.11] | 100% | 100% | 100% | 90% | 100% | 100% | – | – | – | – | – | – |
| CC#Cc1cc(Br)c(C2=C(O)C3(CCC(OCCOC)CC3)NC2=O)c(OC)c1 (centres unmarked) [Example 1.3.05] | 100% | 100% | 100% | 90% | 100% | 100% | – | – | – | – | – | – |
| CC#Cc1cc(Br)c(C2=C(OC(=O)OCC)C3(CCC4(CC3)OCCO4)NC2=O)c(OC)c1 [Example 1.2.01] | 90% | 100% | 100% | 100% | 100% | 100% | 100% | 100% | 100% | 100% | – | 100% |
| CC#Cc1cc(Br)c(C2=C(OC(=O)C(C)C)C3(CCOCC3)NC2=O)c(OC)c1 [Example 1.1.04] | – | – | – | – | – | – | – | – | – | – | 100% | – |
| CC#Cc1cc(Br)c(C2=C(OC(=O)OCC)C3(CCC(OCCOC)CC3)NC2=O)c(OC)c1 (centres unmarked) [Example 1.3.07] | 100% | 100% | 100% | 100% | 100% | 100% | – | – | – | – | – | – |
| C=CCOC1CCC2(CC1)NC(=O)C(c1c(Br)cc(C#CC)cc1OC)=C2OC(=O)C(C)C (centres unmarked) [Example 1.3.04] | 90% | 100% | 100% | 90% | 100% | 100% | 90% | 100% | 100% | 100% | 100% | 100% |
| CC#Cc1cc(Br)c(C2=C(O)C3(CCOCC3)NC2=O)c(OC)c1 [Example 1.1.01, 3-[2-Bromo-6-methoxy-4-(prop-1-yn-1-yl)phenyl]-4-hydroxy-8-oxa-1-azaspiro[4.5]dec-3-en-2-one] | 90% | 100% | 100% | 100% | 100% | 100% | 100% | 100% | 100% | 100% | 100% | 100% |
